# From patent EP0514268A1, “Substituted amino acid azetidinyl pyridone derivatives, their preparation and use as medicines” (LABORATORIOS DEL DR. ESTEVE, S.A., priority 1991, dated 1992)
# Like-named read-outs stand apart in the source and are kept apart here.
# Legend:
# [1] = system: Ent. aerogenes ATCC 15038; assay: Antimicrobial activity, agar dilution; format: cell-based, Enterobacter aerogenes; settings: Klebsiella aerogenes, ATCC15038, 20 h, Agar Dextrose dilutions, 37°C, 20 heures, read-out: Activité pharmacologique antimicrobienne (concentrations)
# Description: (§1) L'activité pharmacologique antimicrobienne de ces composés a été étudiée selon les références exposées ci-dessous.
# (§2) Activité pharmacologique antimicrobienne : G.L. Daquet et Y.A. Chabbect, techniques en bactériologie, Vol. 3, Flammarion Médecine-Sciences, Paris 1972, et W.B. Hugo et A.D. Rusell, Pharmaceutical Microbiology, Blackwell Scientific Publications, London, 1977.
# (§3) Milieu de culture et solvant : Agar d'antibiotiques n° 1 (Oxoid CM 327) Bouillon de triptone-soja (Oxoid CM 129) Solution Physiologique Ringer 1/4 (Oxoid BR 52) Agar Dextrose (BBL 11165)
# (§4) Microorganismes : "Bacillus subtilis" ATCC 6633 "Citrobacter freundii" ATCC 112606 "Enterobacter aerogenes" ATCC 15038 "Enterobacter cloacae" ATCC 23355 "Bacillus cereus" ATCC 1178 "Escherichia coli" ATCC 10799 "Escherichia coli" ATCC 23559 "Klebsiella pneumoniae" ATCC 10031 "Proteus vulgaris" ATCC 8427 "Morg. morganii" ATCC 8019 "Pseudomonas aeruginosa" ATCC 9721 "Pseudomonas aeruginosa" ATCC 10145 "Salmonella typhimurium" ATCC 14028 "Salmonella typhimurium" ATCC 6539 "Serratia marcescens" ATCC 13880 "Shigella flexnerii" ATCC 12022 "Staphylococcusepidermis" ATCC 155-1 "Staphylococcus aureus" ATCC 25178 "Streptococcus faecalis" ATCC 10541.
# (§5) Chacun des microorganismes est ensemencé par strie dans des tubes d'Agar d'antibiotiques n° 1, et mis en incubation pendant 20 heures à 37°C. Ensuite, on prend une anse de culture, on ensemence dans un bouillon de Triptone-soja et on incube pendant 20 heures à 37°C. On dilue à 1/4 la culture obtenue avec une solution physiologique Ringer, de façon à obtenir une suspension normalisée de […] pour chaque organisme.
# (§6) A partir d'une solution de 100 µg/ml, chaque produit est dilué dans l'Agar Dextrose (préalablement fondu et maintenu à 50°C) par dilutions successives de façon à obtenir les concentrations suivantes : 64-32-16-8-4-2-1-0,5-0,25-0,125 µg de dérivé/ml du milieu.
# (§7) Postérieurement, chaque concentration de chaque produit est répartie dans des boîtes de Petri de 10 cm de diamètre, à raison de 10 ml de milieu par boîte et autant de boîtes que de microorganismes à tester.
# (§8) Une fois le milieu refroidi, les boîtes sont ensemencées avec les inoculations à raison de 0,4 ml d'inoculation par boîte. On les étend avec une anse de Driglasky et on recueille le surnageant. Les boîtes ensemencées sont incubées à 37°C pendant 20 heures.
# (§9) Les résultats obtenus sont décrits dans les tableaux suivants. Les concentrations sont données en µg/ml.
# [2] = system: Ent. cloacae ATCC 23355; assay: Antimicrobial activity, agar dilution; format: cell-based, Enterobacter cloacae; settings: Agar Dextrose dilutions, 37°C, 20 heures; for MIC: Enterobacter cloacae, ATCC23355, 20 h, read-out: Activité pharmacologique antimicrobienne (concentrations)
# Description: as §1, §2, §3, §4, §5, §6, §7, §8, §9
# [3] = system: Staph. aureus ATCC 25178; assay: Antimicrobial activity, agar dilution; format: cell-based, Staphylococcus aureus; settings: Agar Dextrose dilutions, 37°C, 20 heures; for MIC: Staphylococcus aureus, ATCC25178, 20 h, read-out: Activité pharmacologique antimicrobienne (concentrations)
# Description: as §1, §2, §3, §4, §5, §6, §7, §8, §9
# [4] = system: Citr. freundii ATCC 11606; assay: Antimicrobial activity, agar dilution; format: cell-based, Citrobacter freundii; settings: Agar Dextrose dilutions, 37°C, 20 heures; for MIC: Citrobacter freundii, ATCC11606, 20 h, read-out: Activité pharmacologique antimicrobienne (concentrations)
# Description: as §1, §2, §3, §4, §5, §6, §7, §8, §9
# [5] = Solubility in water and at pH 7.4; format: physicochemical
# Description: Un grand nombre des composés de l'invention manifestent une augmentation de la solubilité dans l'eau ainsi que de la solubilité à pH 7,4 lorsqu'on compare avec les composés de référence. L'augmentation de solubilité au pH physiologique peut favoriser l'absorption du produit et la solubilité élevée dans l'eau permet l'administration du composé par voie parentérale.
# [6] = system: Strep. faecalis ATCC 10541; assay: Antimicrobial activity, agar dilution; format: cell-based, Streptococcus faecalis; settings: Agar Dextrose dilutions, 37°C, 20 heures; for MIC: Enterococcus faecalis, ATCC10541, 20 h, read-out: Activité pharmacologique antimicrobienne (concentrations)
# Description: as §1, §2, §3, §4, §5, §6, §7, §8, §9
# [7] = system: Serr. marcescens ATCC 13880; assay: Antimicrobial activity, agar dilution; format: cell-based, Serratia marcescens; settings: Agar Dextrose dilutions, 37°C, 20 heures; for MIC: Serratia marcescens, ATCC13880, 20 h, read-out: Activité pharmacologique antimicrobienne (concentrations)
# Description: as §1, §2, §3, §4, §5, §6, §7, §8, §9
# [8] = system: Sal. typhimurium ATCC 14028; assay: Antimicrobial activity, agar dilution; format: cell-based, Salmonella typhimurium; settings: Agar Dextrose dilutions, 37°C, 20 heures; for MIC: Salmonella enterica, 20 h, read-out: Activité pharmacologique antimicrobienne (concentrations)
# Description: as §1, §2, §3, §4, §5, §6, §7, §8, §9
# [9] = system: Staph. epidermidis ATCC 155-1; assay: Antimicrobial activity, agar dilution; format: cell-based; settings: Agar Dextrose dilutions, 37°C, 20 heures; for MIC: Staphylococcus epidermidis, ATCC155, 20 h, read-out: Activité pharmacologique antimicrobienne (concentrations)
# Description: as §1, §2, §3, §4, §5, §6, §7, §8, §9
# [10] = system: Bacillus subtilis ATCC 6633; assay: Antimicrobial activity, agar dilution; format: cell-based; settings: ATCC6633, 20 h, Agar Dextrose dilutions, 37°C, 20 heures, read-out: Activité pharmacologique antimicrobienne (concentrations)
# Description: as §1, §2, §3, §4, §5, §6, §7, §8, §9
# [11] = system: Ps. aeruginosa ATCC 10145; assay: Antimicrobial activity, agar dilution; format: cell-based; settings: Pseudomonas aeruginosa, ATCC10145, 20 h, Agar Dextrose dilutions, 37°C, 20 heures, read-out: Activité pharmacologique antimicrobienne (concentrations)
# Description: as §1, §2, §3, §4, §5, §6, §7, §8, §9
# [12] = system: Morg. morganii ATCC 8019; assay: Antimicrobial activity, agar dilution; format: cell-based; settings: Agar Dextrose dilutions, 37°C, 20 heures; for MIC: Morganella morganii, ATCC8019, 20 h, read-out: Activité pharmacologique antimicrobienne (concentrations)
# Description: as §1, §2, §3, §4, §5, §6, §7, §8, §9
# [13] = system: Proteus vulgaris ATCC 8427; assay: Antimicrobial activity, agar dilution; format: cell-based; settings: Agar Dextrose dilutions, 37°C, 20 heures; for MIC: Proteus vulgaris, ATCC8427, 20 h, read-out: Activité pharmacologique antimicrobienne (concentrations)
# Description: as §1, §2, §3, §4, §5, §6, §7, §8, §9
# [14] = system: Escherichia coli ATCC 23559; assay: Antimicrobial activity, agar dilution; format: cell-based; settings: Agar Dextrose dilutions, 37°C, 20 heures; for MIC: Escherichia coli, ATCC23559, 20 h, read-out: Activité pharmacologique antimicrobienne (concentrations)
# Description: as §1, §2, §3, §4, §5, §6, §7, §8, §9
# [15] = system: Bacillus cereus ATCC 11778; assay: Antimicrobial activity, agar dilution; format: cell-based; settings: Agar Dextrose dilutions, 37°C, 20 heures; for MIC: Bacillus cereus, ATCC11778, 20 h, read-out: Activité pharmacologique antimicrobienne (concentrations)
# Description: as §1, §2, §3, §4, §5, §6, §7, §8, §9
# [16] = system: Ps. aeruginosa ATCC 9721; assay: Antimicrobial activity, agar dilution; format: cell-based; settings: Pseudomonas aeruginosa, ATCC9721, 20 h, Agar Dextrose dilutions, 37°C, 20 heures, read-out: Activité pharmacologique antimicrobienne (concentrations)
# Description: as §1, §2, §3, §4, §5, §6, §7, §8, §9
# [17] = system: Escherichia coli ATCC 10799; assay: Antimicrobial activity, agar dilution; format: cell-based; settings: Agar Dextrose dilutions, 37°C, 20 heures; for MIC: Escherichia coli, ATCC10799, 20 h, read-out: Activité pharmacologique antimicrobienne (concentrations)
# Description: as §1, §2, §3, §4, §5, §6, §7, §8, §9
# [18] = system: Sal. typhi ATCC 6539; assay: Antimicrobial activity, agar dilution; format: cell-based; settings: Salmonella enterica, 20 h, read-out: Activité pharmacologique antimicrobienne (concentrations)
# Description: as §1, §2, §3, §4, §5, §6, §7, §8, §9
# [19] = system: Shigella flexnerii ATCC 12022; assay: Antimicrobial activity, agar dilution; format: cell-based; settings: ATCC12022, 20 h, Agar Dextrose dilutions, 37°C, 20 heures, read-out: Activité pharmacologique antimicrobienne (concentrations)
# Description: as §1, §2, §3, §4, §5, §6, §7, §8, §9
# [20] = system: Kleb. pneumoniae ATCC 10031; assay: Antimicrobial activity, agar dilution; format: cell-based, Klebsiella pneumoniae; settings: Agar Dextrose dilutions, 37°C, 20 heures; for MIC: Klebsiella pneumoniae, ATCC10031, 20 h, read-out: Activité pharmacologique antimicrobienne (concentrations)
# Description: as §1, §2, §3, §4, §5, §6, §7, §8, §9
smiles,measurement,setting,value
"C[C@H](N)C(=O)N[C@@H]1CN(c2nc3c(cc2F)c(=O)c(C(=O)O)cn3C2CC2)[C@H]1C [Exemple 4aA, chlorhydratede l'acide 7-[(2S,3R)-2-méthyl-3-Ala-amino-1-azétidinyl]-1-cyclopropyl-6-fluoro-1,4-dihydro-4-oxo-1,8-naphtyridine-3-carboxylique]",MIC,[1],0.5 µg/mL
same,Activité pharmacologique antimicrobienne (concentrations),[2],"0,12 µg/ml"
same,Activité pharmacologique antimicrobienne (concentrations),[2]; listed as 4aa,"0,25 µg/ml"
same,Activité pharmacologique antimicrobienne (concentrations),[3],"0,25 µg/ml"
same,MIC,[3],0.5 µg/mL
same,Activité pharmacologique antimicrobienne (concentrations),[4],"0,5 µg/ml"
same,MIC,[4],0.25 µg/mL
same,solubility,"[5]; pH 7,4, read-out: Solubilité pH 7,4",> 500 µg/mL
same,solubility,"[5]; water, read-out: Solubilité dans l'eau",> 500 µg/mL
same,Activité pharmacologique antimicrobienne (concentrations),[6],8 µg/ml
same,Activité pharmacologique antimicrobienne (concentrations),[6]; listed as 4aa,1 µg/ml
same,Activité pharmacologique antimicrobienne (concentrations),[7],1 µg/ml
same,Activité pharmacologique antimicrobienne (concentrations),[7]; listed as 4aa,4 µg/ml
same,Activité pharmacologique antimicrobienne (concentrations),[8],1 µg/ml
same,MIC,[8],0.5 µg/mL
same,Activité pharmacologique antimicrobienne (concentrations),[9],1 µg/ml
same,MIC,[9],0.5 µg/mL
same,MIC,[10],0.12 µg/mL
same,MIC,[11],8 µg/mL
same,Activité pharmacologique antimicrobienne (concentrations),[12],"0,5 µg/ml"
same,Activité pharmacologique antimicrobienne (concentrations),[12]; listed as 4aa,2 µg/ml
same,Activité pharmacologique antimicrobienne (concentrations),[13],2 µg/ml
same,MIC,[13],1 µg/mL
same,Activité pharmacologique antimicrobienne (concentrations),[14],"0,12 µg/ml"
same,Activité pharmacologique antimicrobienne (concentrations),[14]; listed as 4aa,"0,25 µg/ml"
same,Activité pharmacologique antimicrobienne (concentrations),[15],"0,5 µg/ml"
same,MIC,[15],1 µg/mL
same,MIC,[16],4 µg/mL
same,Activité pharmacologique antimicrobienne (concentrations),[17],1 µg/ml
same,MIC,[17],0.5 µg/mL
same,MIC,[18],0.5 µg/mL
same,MIC,[19],0.12 µg/mL
same,Activité pharmacologique antimicrobienne (concentrations),[20],"0,06 µg/ml"
same,Activité pharmacologique antimicrobienne (concentrations),[20]; listed as 4aa,"0,5 µg/ml"
CCC[C@H](N)C(=O)NC1CN(c2nc3c(cc2F)c(=O)c(C(=O)O)cn3-c2ccc(F)cc2F)C1 [Exemple 4bN],MIC,[1],1 µg/mL
same,MIC,[2],0.5 µg/mL
same,MIC,[3],4 µg/mL
same,MIC,[4],1 µg/mL
same,MIC,[6],4 µg/mL
same,MIC,[7],2 µg/mL
same,MIC,[8],1 µg/mL
same,MIC,[9],2 µg/mL
same,MIC,[10],0.25 µg/mL
same,MIC,[11],16 µg/mL
same,MIC,[12],2 µg/mL
same,MIC,[13],4 µg/mL
same,MIC,[14],0.25 µg/mL
same,MIC,[15],0.5 µg/mL
same,MIC,[16],4 µg/mL
same,MIC,[17],2 µg/mL
same,MIC,[18],1 µg/mL
same,MIC,[19],0.12 µg/mL
same,MIC,[20],0.12 µg/mL
"C[C@@H](N)C(=O)NC1(C)CN(c2c(F)cc3c(=O)c(C(=O)O)cn(C4CC4)c3c2F)C1 [Exemple 4ca, chlorhydratede l'acide 7-(3-méthyl-3-D-Ala-amino-1-azétidinyl)-1-cyclopropyl-6,8-difluoro-1,4-dihydro-4-oxo-3-quinoléinecarboxylique]",MIC,[1],1 µg/mL
same,MIC,[2],0.5 µg/mL
same,MIC,[3],0.5 µg/mL
same,MIC,[4],1 µg/mL
same,MIC,[6],8 µg/mL
same,MIC,[7],2 µg/mL
same,MIC,[8],1 µg/mL
same,MIC,[9],0.5 µg/mL
same,MIC,[10],0.25 µg/mL
same,MIC,[11],16 µg/mL
same,MIC,[12],1 µg/mL
same,MIC,[13],2 µg/mL
same,MIC,[14],0.5 µg/mL
same,MIC,[15],1 µg/mL
same,MIC,[16],4 µg/mL
same,MIC,[17],1 µg/mL
same,MIC,[18],0.5 µg/mL
same,MIC,[19],0.25 µg/mL
same,MIC,[20],0.25 µg/mL
